Results from patent US6313153A, “Compositions and methods for treating nephritis and inhibiting TGF -β related conditions using pyridylacrylamide derivatives” (Tsumura & Co., priority 1997, dated 2001).

System: anti-GBM nephritic mice
Assay: anti-GBM nephritic mice: proteinuria, serum cholesterol, blood urea nitrogen and serum creatinine;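 on Proteinuria 10th day: minus not effective plus trend double p<0.05 triple p<0.01 quadruple p<0.001 improvement vs control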;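 on Proteinuria 5th day: minus not effective plus trend double p<0.05 triple p<0.01 quadruple p<0.001 improvement vs control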;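 on Serum Parameter BUN (blood urea nitrogen): minus not effective plus trend double p<0.05 triple p<0.01 quadruple p<0.001 improvement vs control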;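 on Serum Parameter S-Ch (serum cholesterol): minus not effective plus trend double p<0.05 triple p<0.01 quadruple p<0.001 improvement vs control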
Assay type: in vivo, BALB/c mice
Settings: for Total Evaluation: 3 × (number of + in proteinuria) + (number of + in serum parameter); for Proteinuria 5th day: 5th day from intravenous injection of anti-GBM serum; for Proteinuria 5th day / Proteinuria 10th day / Serum Parameter BUN (blood urea nitrogen) / Serum Parameter S-Ch (serum cholesterol) / Serum Parameter S-Cr (serum creatinine): oral; for Proteinuria 10th day: 10th day from intravenous injection of anti-GBM serum; for Serum Parameter BUN (blood urea nitrogen) / Serum Parameter S-Ch (serum cholesterol) / Serum Parameter S-Cr (serum creatinine): 11th day
Experimental: BALB/c mice (5 weeks old, purchased from Nippon Charles Liver) were quarantined and adapted for about 1 week before subjecting to experiments. These mice were divided into several groups for the experiments so that average body weights and standard deviations were almost identical in all groups. Mouse anti-GBM (glomerular basement membrane) nephritis was caused by immunizing the mice with rabbit γ-globulin (1 mg) with Freund's complete adjuvant and intravenously injecting rabbit anti-mouse GBM serum on the fifth day from the immunization. Each compound tested was forcedly orally administered via an oral sonde almost simultaneously with the intravenous injection of the anti-GBM serum. On the 5th and 10th days from the intravenous injection, urine was taken by a plastic metabolic cage and proteinuria was measured (Ohtsuka Tonein TP2). On the 11th day, blood was taken by cutting the carotid and serum cholesterol (S--Ch), blood urea nitrogen (BUN) and serum creatinine (S--Cr) were measured by Toshiba TBA-380 autoanalyzer.

CN(CCc1ccc(Cl)c(Cl)c1)C(=O)/C=C/c1cccnc1 [Compound 25]
Total Evaluation: 13 | Proteinuria 5th day: + | Proteinuria 10th day: ++ | Serum Parameter BUN (blood urea nitrogen): + | Serum Parameter S-Ch (serum cholesterol): +++ | Serum Parameter S-Cr (serum creatinine): +

COc1cc(CCN(C)C(=O)/C=C/c2cccnc2)cc(OC)c1OC.Cl [Compound 9, (E)-N-methyl-3-(3-pyridyl)-N-(3,4,5-trimethoxyphenethyl)-2-propenoic acid amide hydrochloride]
Total Evaluation: 12 | Proteinuria 5th day: + | Proteinuria 10th day: ++ | Serum Parameter BUN (blood urea nitrogen): + | Serum Parameter S-Ch (serum cholesterol): + | Serum Parameter S-Cr (serum creatinine): +

O=C(/C=C/c1cccnc1)NCCc1ccc(O)cc1 [Compound 71]
Total Evaluation: 17 | Proteinuria 5th day: + | Proteinuria 10th day: +++ | Serum Parameter BUN (blood urea nitrogen): ++ | Serum Parameter S-Ch (serum cholesterol): - | Serum Parameter S-Cr (serum creatinine): ++

CSc1ccc(CCN(C)C(=O)/C=C/c2cccnc2)cc1 [Compound 53]
Total Evaluation: 6 | Proteinuria 5th day: - | Proteinuria 10th day: + | Serum Parameter BUN (blood urea nitrogen): - | Serum Parameter S-Ch (serum cholesterol): - | Serum Parameter S-Cr (serum creatinine): +++

CN(CCc1ccc(O)c(O)c1)C(=O)/C=C/c1cccnc1 [Compound 85, (E)-N-(3,4-dihydroxyphenethyl)-N-methyl-3-(3-pyridyl)-2-propenoic acid amide]
Total Evaluation: 21 | Proteinuria 5th day: +++ | Proteinuria 10th day: +++ | Serum Parameter BUN (blood urea nitrogen): + | Serum Parameter S-Ch (serum cholesterol): ++ | Serum Parameter S-Cr (serum creatinine): -

O=C(/C=C/c1cccnc1)NCCc1cc(O)ccc1O [Compound 89]
Total Evaluation: 15 | Proteinuria 5th day: ++ | Proteinuria 10th day: ++ | Serum Parameter BUN (blood urea nitrogen): + | Serum Parameter S-Ch (serum cholesterol): ++ | Serum Parameter S-Cr (serum creatinine): -

COc1cc(C(O)CN(C)C(=O)/C=C/c2cccnc2)ccc1O (stereo not drawn) [Compound 158, (E)-N-[2-hydroxy-2-(3-methoxy-4-hydroxyphenyl)ethyl]-N-methyl-3-(3-pyridyl)-2-propenoic acid amide]
Total Evaluation: 7 | Proteinuria 5th day: + | Proteinuria 10th day: + | Serum Parameter BUN (blood urea nitrogen): - | Serum Parameter S-Ch (serum cholesterol): + | Serum Parameter S-Cr (serum creatinine): -

COc1cc(CCN(C)C(=O)/C=C/c2cccnc2)cc(OC)c1 [Compound 18]
Total Evaluation: 13 | Proteinuria 5th day: + | Proteinuria 10th day: ++ | Serum Parameter BUN (blood urea nitrogen): ++ | Serum Parameter S-Ch (serum cholesterol): ++ | Serum Parameter S-Cr (serum creatinine): -

COC(=O)COc1ccccc1CCNC(=O)/C=C/c1cccnc1 [Compound 102]
Total Evaluation: 9 | Proteinuria 5th day: + | Proteinuria 10th day: ++ | Serum Parameter BUN (blood urea nitrogen): - | Serum Parameter S-Ch (serum cholesterol): - | Serum Parameter S-Cr (serum creatinine): -

CN(CCc1ccc(-c2ccccc2)cc1)C(=O)/C=C/c1cccnc1 [Compound 52]
Total Evaluation: 10 | Proteinuria 5th day: + | Proteinuria 10th day: + | Serum Parameter BUN (blood urea nitrogen): + | Serum Parameter S-Ch (serum cholesterol): + | Serum Parameter S-Cr (serum creatinine): ++

O=C(/C=C/c1cccnc1)NCC(=O)c1cccc(O)c1 [Compound 160, (E)-N-(3-hydroxyphenacyl)-3-(3-pyridyl)-2-propenoic acid amide]
Total Evaluation: 14 | Proteinuria 5th day: +++ | Proteinuria 10th day: + | Serum Parameter BUN (blood urea nitrogen): - | Serum Parameter S-Ch (serum cholesterol): ++ | Serum Parameter S-Cr (serum creatinine): -

COc1ccc(OC)c(CCNC(=O)/C=C/c2cccnc2)c1 [Compound 39]
Total Evaluation: 21 | Proteinuria 5th day: ++ | Proteinuria 10th day: +++ | Serum Parameter BUN (blood urea nitrogen): ++ | Serum Parameter S-Ch (serum cholesterol): ++ | Serum Parameter S-Cr (serum creatinine): ++

CCOC(=O)COc1cccc(C(=O)CNC(=O)/C=C/c2cccnc2)c1 [Compound 161]
Total Evaluation: 10 | Proteinuria 5th day: ++ | Proteinuria 10th day: + | Serum Parameter BUN (blood urea nitrogen): - | Serum Parameter S-Ch (serum cholesterol): + | Serum Parameter S-Cr (serum creatinine): -

CCNC(=O)Oc1ccc(CCN(C)C(=O)/C=C/c2cccnc2)cc1OC(=O)NCC [Compound 133]
Total Evaluation: 9 | Proteinuria 5th day: + | Proteinuria 10th day: + | Serum Parameter BUN (blood urea nitrogen): + | Serum Parameter S-Ch (serum cholesterol): + | Serum Parameter S-Cr (serum creatinine): +

COc1cc(C(=O)CN(C)C(=O)/C=C/c2cccnc2)ccc1O [Compound 162, (E)-N-methyl-N-(3-methoxy-4-hydroxyphenacyl)-3-(3-pyridyl)-2-propenoic acid amide]
Total Evaluation: 13 | Proteinuria 5th day: +++ | Proteinuria 10th day: + | Serum Parameter BUN (blood urea nitrogen): - | Serum Parameter S-Ch (serum cholesterol): + | Serum Parameter S-Cr (serum creatinine): -

CN(CCc1ccc(O)cc1)C(=O)/C=C/c1cccnc1 [Compound 87]
Total Evaluation: 19 | Proteinuria 5th day: +++ | Proteinuria 10th day: + | Serum Parameter BUN (blood urea nitrogen): +++ | Serum Parameter S-Ch (serum cholesterol): ++ | Serum Parameter S-Cr (serum creatinine): ++

NC(=O)COc1cccc(CCNC(=O)/C=C/c2cccnc2)c1 [Compound 115]
Total Evaluation: 10 | Proteinuria 5th day: - | Proteinuria 10th day: + | Serum Parameter BUN (blood urea nitrogen): ++ | Serum Parameter S-Ch (serum cholesterol): ++ | Serum Parameter S-Cr (serum creatinine): +++

CCOC(=O)COc1cccc(C(O)CNC(=O)/C=C/c2cccnc2)c1 (stereo not drawn) [Compound 159, ethyl [3-[1-hydroxy-2-((E) -3-(3-pyridyl)acryloylamino]ethyl]phenoxy]acetate]
Total Evaluation: 10 | Proteinuria 5th day: ++ | Proteinuria 10th day: + | Serum Parameter BUN (blood urea nitrogen): - | Serum Parameter S-Ch (serum cholesterol): + | Serum Parameter S-Cr (serum creatinine): -

O=C(/C=C/c1cccnc1)NCc1cccc(O)c1 [Compound 90]
Total Evaluation: 17 | Proteinuria 5th day: ++ | Proteinuria 10th day: +++ | Serum Parameter BUN (blood urea nitrogen): + | Serum Parameter S-Ch (serum cholesterol): - | Serum Parameter S-Cr (serum creatinine): +

CCOC(=O)COc1ccc(CCNC(=O)/C=C/c2cccnc2)cc1 [Compound 101]
Total Evaluation: 8 | Proteinuria 5th day: - | Proteinuria 10th day: ++ | Serum Parameter BUN (blood urea nitrogen): - | Serum Parameter S-Ch (serum cholesterol): - | Serum Parameter S-Cr (serum creatinine): ++

COc1cccc(CNC(=O)/C=C/c2cccnc2)c1 [Compound 42]
Total Evaluation: 9 | Proteinuria 5th day: + | Proteinuria 10th day: + | Serum Parameter BUN (blood urea nitrogen): + | Serum Parameter S-Ch (serum cholesterol): - | Serum Parameter S-Cr (serum creatinine): ++

COc1ccc(CN(C)C(=O)/C=C/c2cccnc2)cc1OC [Compound 20]
Total Evaluation: 13 | Proteinuria 5th day: ++ | Proteinuria 10th day: + | Serum Parameter BUN (blood urea nitrogen): + | Serum Parameter S-Ch (serum cholesterol): + | Serum Parameter S-Cr (serum creatinine): ++
